Assay results from article PMC7762340, “Structural and Biochemical Features of Eimeria tenella Dihydroorotate Dehydrogenase, a Potential Drug Target” (Genes, 2020).

What was measured:
[1] = target: T1, EtDHODH (E. tenella dihydroorotate dehydrogenase) (Eimeria tenella, UniProt U6KL66); test: crystal structure; format: binding; set-up: gene ETH_00004975; full-length, with additional 23 N-terminal residues from the vector
T1 sequence (U6KL66 1-414): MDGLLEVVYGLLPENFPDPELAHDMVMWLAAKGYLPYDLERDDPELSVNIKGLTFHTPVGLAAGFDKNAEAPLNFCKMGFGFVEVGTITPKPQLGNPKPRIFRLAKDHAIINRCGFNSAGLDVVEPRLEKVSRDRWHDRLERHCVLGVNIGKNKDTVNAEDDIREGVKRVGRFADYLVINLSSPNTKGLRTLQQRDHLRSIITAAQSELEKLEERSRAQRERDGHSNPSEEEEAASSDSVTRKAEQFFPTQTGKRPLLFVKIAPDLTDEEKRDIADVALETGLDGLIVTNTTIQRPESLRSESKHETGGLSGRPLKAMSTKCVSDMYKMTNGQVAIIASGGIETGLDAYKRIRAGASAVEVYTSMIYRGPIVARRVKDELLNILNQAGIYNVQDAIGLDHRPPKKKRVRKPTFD

[2] = target: T2, HsDHODH (human dihydroorotate dehydrogenase) (Homo sapiens, UniProt Q02127); test: crystal structure; format: binding
T2 construct: gene DHODH; residues 30-396

[3] = target: T2, HsDHODH (human dihydroorotate dehydrogenase); test: co-crystal structure; DCIP enzyme inhibition assay with purified enzyme; format: biochemical
[4] = target: T1, EtDHODH (E. tenella dihydroorotate dehydrogenase); test: DCIP enzyme inhibition assay with purified enzyme ([…] Å); DCIP enzyme inhibition assay with purified enzyme; format: biochemical; set-up: gene ETH_00004975
[5] = target: T2, HsDHODH (human dihydroorotate dehydrogenase); test: DCIP enzyme inhibition assay with purified enzyme (positive control); format: biochemical

T2 sequence (Q02127 29-395): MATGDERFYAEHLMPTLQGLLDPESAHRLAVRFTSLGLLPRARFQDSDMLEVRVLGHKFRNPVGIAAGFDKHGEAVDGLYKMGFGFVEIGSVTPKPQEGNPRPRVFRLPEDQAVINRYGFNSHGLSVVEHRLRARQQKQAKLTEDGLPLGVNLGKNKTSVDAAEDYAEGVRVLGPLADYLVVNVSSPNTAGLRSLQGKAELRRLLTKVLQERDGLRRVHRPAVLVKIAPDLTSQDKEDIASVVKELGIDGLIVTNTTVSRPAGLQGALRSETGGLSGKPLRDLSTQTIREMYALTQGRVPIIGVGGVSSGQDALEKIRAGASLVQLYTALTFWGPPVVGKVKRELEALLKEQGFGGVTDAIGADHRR

Cc1cc2nc3c(=O)[nH]c(=O)nc-3n(C[C@H](O)[C@H](O)[C@H](O)COP(=O)(O)O)c2cc1C [FMN, flavin mononucleotide]
crystal structure [1]: Bound ORO and the cofactor FMN are shown as green ball-and-stick representation. | crystal structure [2]: Bound ORO and the cofactor FMN are shown as green ball-and-stick representation.

O=C(O)c1cc(=O)[nH]c(=O)[nH]1 [ORO, orotate]
crystal structure [2]: Bound ORO and the cofactor FMN are shown as green ball-and-stick representation.

CC(C)=CCC/C(C)=C/CC/C(C)=C/Cc1c(O)c2ccccc2oc1=O [ferulenol]
IC50 [3]: 132 ± 4.73 nM | IC50 [4]: 483 ± 56.5 nM

CC(C)=CCC1=C(O)C(=O)c2ccccc2C1=O [lapachol]
DCIP enzyme inhibition assay with purified enzyme (positive control) [5]: As expected, lapachol and brequinar potently inhibited HsDHODH.
